Patent US8288334B2, “Peptides for wound healing” (Gene Signal International SA, priority 2010, dated 2012)

Assays:
[1] = test system: trans-dermal wounds; assay: wound healing of trans-dermal wounds in mice after topical application; type: in vivo; conditions: for wound healing compared with Vehicle treated wounds: 0.5 mg/ml (5 mg/kg), mice; for % healing of wounds, day 1 post treatment: day 1, 0.5 mg/ml (5 mg/kg), vehicle 16.9%; for % healing of wounds, day 1 post treatment / % healing of wounds, day 2 post treatment / % healing of wounds, day 3 post treatment / % healing of wounds, day 4 post treatment: 5 mm punch wounds; for % healing of wounds, day 2 post treatment: day 2, 0.5 mg/ml (5 mg/kg), vehicle 21.2%; for % healing of wounds, day 3 post treatment: day 3, 0.5 mg/ml (5 mg/kg), vehicle 45.9%; for % healing of wounds, day 4 post treatment: day 4, 0.5 mg/ml (5 mg/kg), vehicle 57.5%
Experimental: The vehicle (Batch A) was administered by topical application at a standardized volume of 10 ml/kg for all applications. The peptides of the invention were administered by topical application at the concentration of 0.5 mg/ml in the vehicle. The protocols of treatment were as it follows: • Group 1: (Batch A, Vehicle): 1 topical application 10 minutes after wounding • Group 2: (Peptide 7, 0.5 mg/ml): 1 topical application 10 minutes after wounding • Group 3: (Peptide 10, 0.5 mg/ml): 1 topical application 10 minutes after wounding • Group 4: (Peptide 11, 0.5 mg/ml): 1 topical application 10 minutes after wounding • Group 5: (Peptide 7B, 0.5 mg/ml): 1 topical application 10 minutes after wounding. • Group 6: (Peptide 7A, 0.5 mg/ml): 1 topical application 10 minutes after wounding. • Group 7: (Peptide 7C, 0.5 mg/ml): 1 topical application 10 minutes after wounding. Wounding
Healthy female BALBC Swiss mice were anesthetized by IP injection of Ketamine-Xylazine (80 mg/kg-12 mg/kg; Ref. K-113, Sigma, France). Two trans-dermal wounds, each of 5 mm in width and about 1 to 2 mm in depth were realized in the right and the left flanks of each mouse using 5 mm punch.
At D1, and 10 min post-injury of the animals, the mice were randomized into 7 groups of 3 mice each.
All treatments were realized by topical application at the frequency of 1 topical application/day, for 4 days. Animals of group 1 were treated with the vehicle solution (Batch A). Animals of groups 2 to 7 were treated with the indicated peptide at a dose of 5 mg/kg.

[2] = test system: human microvascular endothelial cells (HMEC); assay: in vitro angiogenesis assay (Matrigel, endothelial tube formation); type: cell-based; conditions: 400 μg/ml final concentration of each peptide, images at 6 h post incubation
Experimental: Angiogenesis of human microvascular endothelial cells (HMEC) was induced in vitro using a Matrigel assay described by Grant et al (1989, Cell, 1989; 58:933). This method is based on the differentiation of endothelial cells to form capillary structures on a Matrigel Matrix. Matrigel is prepared the Engelbreth-Holm-Swarm (EHS) mouse tumor, which represents a complex mixture of basement membrane proteins including type IV collagen, entactin, proteo-heparan sulfate and other growth factors.
Briefly, 250 μl of Matrigel were transferred to each well of a 24-well culture plate and incubated at 37° C. for 30 min to allow for the matrix solution to solidify. HMEC grown in complete growth medium EGM-2MV were harvested by trypsin, suspended in the same growth medium and 500 μl containing 70 000 cells were added on top of the solidified Matrigel in each well and in the presence or absence of protein. Cells were maintained in a humidified atmosphere air containing 5% CO2 at 37° C. for 18-24 hrs. Endothelial tube formation was observed and photographed under an inverted light microscope.
The results of the in vitro angiogenesis assay were presented in FIG. 1, using HMEC and 400 μg/ml final concentration of each peptide. Images were taken at 6 h post incubation.

[3] = test system: MAPK (Erk1 and 2); assay: activation status of MAPK (pErk1/2) by western-blot in HMEC; type: cell-based, human; conditions: immunoblot anti-activated MAPK (pErk1/2)
Experimental: The activation status of MAPK was determined by western-blot using an anti-activated MAPK (pErk1/2) antibody, and anti-GAPDH mAb as internal standard.
We have also investigated the status of the mitogen activated protein kinase (MAPK), as it is well established that it represents another cascade of intracellular signaling could be implicated in the regulation of VEGF expression.

[4] = test system: VEGFA protein; assay: VEGFA protein by human VEGFA sandwich ELISA in HMEC culture medium; type: cell-based; conditions: HMEC incubated with increasing concentrations of peptide
Experimental: Serum-deprived HMEC were incubated with different concentrations of peptide 7 or peptide 10 or vehicle […]. After 3 washes with ice-cold PBS, cells were suspended with the protein extraction buffer (PEB) (20 mM Tris-HCl pH 7.5, 150 mM NaCl, 1 mM EDTA, 1 mM EGTA, 1% Triton, 25 mM sodium pyrophosphate, 1 mM β-glycero-phosphate, 1 mM Na3Vo4, 1 μg/ml leupeptine, 1 μM PMSF). The protein content was measured by Bradford. VEGFA concentration in the culture medium or in the extracts was determined by human VEGFA Sandwich ELISA kit (Cell Signaling technology) according to the manufacturer's instructions.

[5] = test system: Akt (phosphoserine 473 pAkt); assay: activation status of protein kinase B (pAkt) by western-blot in HMEC; type: cell-based, human; conditions: 400 μg/ml, 10 min and 30 min post incubation, immunoblot
Experimental: The activation status of pAkt was determined by western-blot using an anti-phosphoserine 473 pAkt antibody, and anti-GAPDH mAb as internal standard.
The status of Akt in the HMEC following incubation with either peptide 7 or peptide 10 was investigated.

| Sequence | wound healing compared with Vehicle treated wounds [1] | in vitro angiogenesis-inducing activity [2] | % healing of wounds, day 1 post treatment [1] | % healing of wounds, day 2 post treatment [1] | % healing of wounds, day 3 post treatment [1] | % healing of wounds, day 4 post treatment [1] | level of activation of Erk1 and 2 (MAPK) versus Control [3] | VEGF protein within the culture medium, concentration dependence [4] | level of activated Akt relative to HMEC incubated without peptide (Control) [5] |
| --- | --- | --- | --- | --- | --- | --- | --- | --- | --- |
| ELDLQASL [Peptide 7B] | healed faster than the wounds treated with Vehicle |  |  |  |  |  |  |  |  |
| QSQKVPRQVQS [Peptide 11] | healed faster than the wounds treated with Vehicle | strong in vitro angiogenesis-inducing activity |  |  |  |  |  |  |  |
| RRTTQECPVRTSLD [Peptide 7C] | healed faster than the wounds treated with Vehicle |  | 39.4% | 55.3% | 58.8% | 68.2% |  |  |  |
| TQECPVRTSLD [Peptide 7A] | healed faster than the wounds treated with Vehicle |  | 27.4% | 44.7% | 45.1% | 58.8% |  |  |  |
| TQECPVRTSLDRELDLQASL [Peptide 7] | healed faster than the wounds treated with Vehicle | strong in vitro angiogenesis-inducing activity |  |  |  |  | not significant variations in level of activation of Erk1 and 2 | dose-dependent increase in VEGF protein | much higher level of activated Akt |
| VSKDVCRL [Peptide 10] | healed faster than the wounds treated with Vehicle | strong in vitro angiogenesis-inducing activity |  |  |  |  | not significant variations in level of activation of Erk1 and 2 |  | much higher level of activated Akt |
